Assay results reported in patent US9833497B2, “Human originated EGF domain proteins and use of the same” (CHENGDU SOURCEBIO LIMITED-LIABILITY COMPANY, priority 2013, dated 2017).

What was measured:
Assay type in all cases: cell-based
Aeromonas hydrophila = assay: MIC against Gram-negative bacteria: Aeromonas hydrophila; settings: A. hydrophila; 10 h cultivation at 37° C.; 5×10^5 CFU/mL
Summary of the method: (§1)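 Bacteria grown in LB at 37° C to McFarland 0.5, resuspended and seeded at 5×10^5 CFU/mL in 96-well plates. Purified human EGF-domain proteins two-fold serially diluted, triplicate wells; cultured at 37° C, shaking 175 rpm. MIC = lowest protein concentration with no growth.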

Citrobacter diversus = assay: MIC against Gram-negative bacteria: Citrobacter diversus; settings: C. diversus; 10 h cultivation at 37° C.; 5×10^5 CFU/mL
Summary of the method: as §1

Enterobacter cloacae = assay: MIC against Gram-negative bacteria: Enterobacter cloacae; settings: E. cloacae; 10 h cultivation at 37° C.; 5×10^5 CFU/mL
Summary of the method: as §1

Serratia marcescens = assay: MIC against Gram-negative bacteria: Serratia marcescens; settings: S. marcescens; 10 h cultivation at 37° C.; 5×10^5 CFU/mL
Summary of the method: as §1

Pseudomonas aeruginosa = assay: MIC against Gram-negative bacteria: Pseudomonas aeruginosa; settings: P. aeruginosa; 10 h cultivation at 37° C.; 5×10^5 CFU/mL
Summary of the method: as §1

Moraxella catarrhalis = assay: MIC against Gram-negative bacteria: Moraxella catarrhalis; settings: M. catarrhalis; 10 h cultivation at 37° C.; 5×10^5 CFU/mL
Summary of the method: as §1

Proteus mirabilis = assay: MIC against Gram-negative bacteria: Proteus mirabilis; settings: P. mirabilis; 10 h cultivation at 37° C.; 5×10^5 CFU/mL
Summary of the method: as §1

E. coli BL21 = assay: MIC against Gram-negative bacteria: E. coli BL21; settings: E. coli BL21; 10 h cultivation at 37° C.; 5×10^5 CFU/mL
Summary of the method: as §1

Proteus vulgaris = assay: MIC against Gram-negative bacteria: Proteus vulgaris; settings: P. vulgaris; 10 h cultivation at 37° C.; 5×10^5 CFU/mL
Summary of the method: as §1

Klebsiella pneumonia = assay: MIC against Gram-negative bacteria: Klebsiella pneumonia; settings: K. pneumonia; 10 h cultivation at 37° C.; 5×10^5 CFU/mL
Summary of the method: as §1

E. coli DH5α = assay: Antibacterial activity: MIC and growth curve against E. coli DH5α in 96-well plate; settings: minimal inhibitory concentration against E. coli DH5α; 96-well plate, 5×10^5 CFU/mL, 37° C., judged after 8 h
Summary of the method: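 MIC taken as lowest protein level with no bacterial growth, tracked by A600 every 30 min during 37 °C, 175 rpm culture. Two-fold protein series 50-12.5 μg/mL final, triplicate wells, against 5×10^5 CFU/mL of LB-washed mid-log cells.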

Row | Substance | MIC (μg/mL) A. hydrophila (Aeromonas hydrophila) | MIC (μg/mL) C. diversus (Citrobacter diversus) | MIC (μg/mL) E. cloacae (Enterobacter cloacae) | MIC (μg/mL) S. marcescens (Serratia marcescens) | MIC (μg/mL) P. aeruginosa (Pseudomonas aeruginosa) | MIC (μg/mL) M. catarrhalis (Moraxella catarrhalis) | MIC (μg/mL) P. mirabilis (Proteus mirabilis) | MIC (μg/mL) E. coli BL21 (E. coli BL21) | MIC (μg/mL) P. vulgaris (Proteus vulgaris) | MIC (μg/mL) K. pneumonia (Klebsiella pneumonia) | MIC (E. coli DH5α)
1 | PRT872 (CKCNLHANLCSMREGSLQCECEHNTTGPDCGKCKKNFRTRSWRAGSYLPLPHGSPNACAT; listed as Homo sapiens) | 50 µg/mL | 12.5 µg/mL | 25 µg/mL | 25 µg/mL | 25 µg/mL | 50 µg/mL | 12.5 µg/mL | 50 µg/mL | 50 µg/mL | 12.5 µg/mL | 25 µg/mL
2 | PRT873 (CECYGHSNRCSYIDFLNVVTCVSCKHNTRGQHCQHCRLGYYRNGSAELDDENVCIE; listed as Homo sapiens) | 50 µg/mL | 25 µg/mL | 25 µg/mL | 12.5 µg/mL | 12.5 µg/mL | 12.5 µg/mL | 25 µg/mL | 50 µg/mL | 50 µg/mL | 25 µg/mL | 12.5 µg/mL
3 | PRT874 (CNCNQIGSVHDRCNETGFCECREGAAGPKCDDCLPTHYWRQGCYP; listed as Homo sapiens) | 12.5 µg/mL | 12.5 µg/mL | 12.5 µg/mL | 12.5 µg/mL | 12.5 µg/mL | 25 µg/mL | 12.5 µg/mL | 25 µg/mL | 12.5 µg/mL | 12.5 µg/mL | 12.5 µg/mL
4 | PRT875 (GGSPCEAGEEGEGGVCLNGGVCSVVDDQAVCDCSRTGFRGKDCS; listed as Homo sapiens) | 50 µg/mL | 12.5 µg/mL | 12.5 µg/mL | 12.5 µg/mL | 25 µg/mL | 25 µg/mL | 50 µg/mL | 12.5 µg/mL | 12.5 µg/mL | 50 µg/mL | 25 µg/mL
5 | PRT876 (TAKPCLSNPCKNNGMCRDGWNRYVCDCSGTGYLGRSCE; listed as Homo sapiens) | 12.5 µg/mL | 25 µg/mL | 25 µg/mL | 25 µg/mL | 12.5 µg/mL | 12.5 µg/mL | 25 µg/mL | 12.5 µg/mL | 25 µg/mL | 12.5 µg/mL | 12.5 µg/mL
6 | PRT878 (ADPLCAPARNPCANGGLCTVLAPGEVGCDCSHTGFGGKFCS; listed as Homo sapiens) | 50 µg/mL | 12.5 µg/mL | 12.5 µg/mL | 12.5 µg/mL | 12.5 µg/mL | 25 µg/mL | 50 µg/mL | 25 µg/mL | 25 µg/mL | 50 µg/mL | 50 µg/mL
7 | PRT879 (TLKQCASAPCRNGGVCREGWNRFICDCIGTGFLGRVCE; listed as Homo sapiens) | 12.5 µg/mL | 25 µg/mL | 25 µg/mL | 25 µg/mL | 12.5 µg/mL | 12.5 µg/mL | 12.5 µg/mL | 50 µg/mL | 12.5 µg/mL | 12.5 µg/mL | 25 µg/mL
8 | PRT881 (AEGPCGERPCENGGICFLLDGHPTCDCSTTGYGGKLCS; listed as Homo sapiens) | 25 µg/mL | 12.5 µg/mL | 12.5 µg/mL | 12.5 µg/mL | 12.5 µg/mL | 25 µg/mL | 12.5 µg/mL | 12.5 µg/mL | 25 µg/mL | 25 µg/mL | 12.5 µg/mL
9 | PRT882 (SAKQCDSYPCKNNAVCKDGWNRFICDCTGTGYWGRTCE; listed as Homo sapiens) | 100 µg/mL | 50 µg/mL | 25 µg/mL | 50 µg/mL | 25 µg/mL | 12.5 µg/mL | 50 µg/mL | 12.5 µg/mL | 12.5 µg/mL | 12.5 µg/mL | 25 µg/mL
10 | PRT884 (HSDPCENNPCLHGGTCNANGTMYGCSCDQGFAGENCE; listed as Homo sapiens) | 12.5 µg/mL | 12.5 µg/mL | 12.5 µg/mL | 25 µg/mL | 12.5 µg/mL | 12.5 µg/mL | 25 µg/mL | 12.5 µg/mL | 50 µg/mL | 12.5 µg/mL | 12.5 µg/mL
11 | PRT886 (RGPRCSQPGETCLNGGKCEAANGTEACVCGGAFVGPRCQ; listed as Homo sapiens) | 12.5 µg/mL | 25 µg/mL | 25 µg/mL | 25 µg/mL | 25 µg/mL | 12.5 µg/mL | 25 µg/mL | 12.5 µg/mL | 12.5 µg/mL | 12.5 µg/mL | 25 µg/mL
12 | PRT887 (LNDACISNPCNEGSNCDTNPVNGKAICTCPSGYTGPACS; listed as Homo sapiens) | 25 µg/mL | 12.5 µg/mL | 50 µg/mL | 50 µg/mL | 12.5 µg/mL | 25 µg/mL | 50 µg/mL | 25 µg/mL | 12.5 µg/mL | 25 µg/mL | 12.5 µg/mL
13 | PRT889 (DVNECVSNPCQNDATCLDQIGEFQCICMPGYEGVHCE; listed as Homo sapiens) | 12.5 µg/mL | 12.5 µg/mL | 12.5 µg/mL | 25 µg/mL | 25 µg/mL | 12.5 µg/mL | 25 µg/mL | 12.5 µg/mL | 12.5 µg/mL | 12.5 µg/mL | 25 µg/mL
